The target of data set [1] is T1, Dual specificity protein kinase TTK (Homo sapiens, UniProt P33981).
T1 sequence (P33981 whole entry): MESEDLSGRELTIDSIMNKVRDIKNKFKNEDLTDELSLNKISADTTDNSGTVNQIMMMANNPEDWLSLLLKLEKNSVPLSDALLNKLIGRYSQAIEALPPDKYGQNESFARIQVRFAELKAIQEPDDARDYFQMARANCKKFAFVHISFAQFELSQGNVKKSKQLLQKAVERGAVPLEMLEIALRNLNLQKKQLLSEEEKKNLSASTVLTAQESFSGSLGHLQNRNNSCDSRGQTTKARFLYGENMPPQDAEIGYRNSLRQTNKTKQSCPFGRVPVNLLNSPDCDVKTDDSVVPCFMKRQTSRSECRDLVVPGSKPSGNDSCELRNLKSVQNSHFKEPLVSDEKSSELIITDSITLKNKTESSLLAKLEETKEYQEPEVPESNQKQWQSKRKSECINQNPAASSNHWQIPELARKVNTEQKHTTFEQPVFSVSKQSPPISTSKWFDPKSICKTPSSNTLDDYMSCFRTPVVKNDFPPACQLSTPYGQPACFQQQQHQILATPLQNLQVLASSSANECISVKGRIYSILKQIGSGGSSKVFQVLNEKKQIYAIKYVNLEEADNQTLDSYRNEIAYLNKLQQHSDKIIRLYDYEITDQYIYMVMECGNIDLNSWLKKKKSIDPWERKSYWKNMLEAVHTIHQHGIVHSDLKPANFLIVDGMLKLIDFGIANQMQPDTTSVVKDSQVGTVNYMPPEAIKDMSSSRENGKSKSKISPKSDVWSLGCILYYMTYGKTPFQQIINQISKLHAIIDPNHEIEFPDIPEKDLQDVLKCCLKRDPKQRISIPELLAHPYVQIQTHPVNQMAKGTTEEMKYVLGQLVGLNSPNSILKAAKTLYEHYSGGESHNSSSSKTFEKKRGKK
Put plainly: Displacement of kinase tracer 236 from TTK (unknown origin) by LanthaScreen Eu kinase binding assay. (Time-resolved FRET reads energy transfer from a long-lived donor to a nearby acceptor.)

For data set [2], the species on record is Homo sapiens. Put plainly: Selectivity ratio of IC50 for inhibition of N1-SRC (unknown origin) to IC50 for inhibition of TTK (unknown origin).
The species entered for data set [3] is Homo sapiens. Put plainly: Selectivity ratio of IC50 for inhibition of MAPKAPK3 (unknown origin) to IC50 for inhibition of TTK (unknown origin).
Data set [4] addresses Mitogen-activated protein kinase 9 (Homo sapiens, UniProt P45984). Put plainly: Inhibition of JNK2 (unknown origin) at 3 uM by Z-lyte assay relative to control.
Data set [5] is described as follows: Volume of distribution at steady state in rat at 2 mg/kg, iv. It counts as ADME, organism-based. The note with it: in vivo, read-out: Vdss.
For data set [6], the species on record is Homo sapiens. Put plainly: Selectivity index, ratio of IC50 for inhibition of CHK2 (unknown origin) to IC50 for inhibition of TTK (unknown origin).
Data set [7] has as its target Mitogen-activated protein kinase 8 (Homo sapiens, UniProt P45983). Put plainly: Inhibition of JNK1 (unknown origin) by Z-lyte assay.
Data set [8] can be described thus: AUC in mouse at 2 mg/kg, iv. It counts as ADME, organism-based. On the set-up: dose 2 mg/kg. To be noted: in vivo.
The target in data set [9] is Testis-specific serine/threonine-protein kinase 2 (Homo sapiens, UniProt Q96PF2). Put plainly: Inhibition of TSSK2 (unknown origin) by Z-lyte assay.
Testis-specific serine/threonine-protein kinase 2, sequence (Q96PF2 whole entry): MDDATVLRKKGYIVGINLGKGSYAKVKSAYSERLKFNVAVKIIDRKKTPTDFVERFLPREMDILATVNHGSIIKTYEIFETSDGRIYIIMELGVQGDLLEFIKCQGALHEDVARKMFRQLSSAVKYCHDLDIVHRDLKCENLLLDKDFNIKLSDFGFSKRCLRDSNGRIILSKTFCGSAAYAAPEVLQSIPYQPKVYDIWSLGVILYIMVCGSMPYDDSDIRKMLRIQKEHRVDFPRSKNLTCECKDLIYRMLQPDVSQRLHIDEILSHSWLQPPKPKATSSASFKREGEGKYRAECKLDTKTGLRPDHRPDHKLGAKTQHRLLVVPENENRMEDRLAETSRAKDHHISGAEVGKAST
Data set [10] can be described thus: Antitumor activity against human CAL-51 cells xenografted in CB17-SCID mouse assessed as tumor growth inhibition at 30 to 50 mg/kg, iv administered once per week for 16 days relative to control. The data set is classed as functional. To be noted: dose 30-50 mg/kg, time 16 day. A general note: Xenograft models place foreign cells or tissue in a host animal.
Data set [11] concerns the target MAP kinase-activated protein kinase 3 (Homo sapiens, UniProt Q16644). Put plainly: Inhibition of MAPKAPK3 (unknown origin) by Z-lyte assay.
For data set [12], the target named is Substance-P receptor (Homo sapiens) (UniProt P25103). Put plainly: Inhibition of Neurokinin NK1 receptor (unknown origin) at 10 uM relative to control.
Substance-P receptor (Homo sapiens), sequence (P25103 whole entry): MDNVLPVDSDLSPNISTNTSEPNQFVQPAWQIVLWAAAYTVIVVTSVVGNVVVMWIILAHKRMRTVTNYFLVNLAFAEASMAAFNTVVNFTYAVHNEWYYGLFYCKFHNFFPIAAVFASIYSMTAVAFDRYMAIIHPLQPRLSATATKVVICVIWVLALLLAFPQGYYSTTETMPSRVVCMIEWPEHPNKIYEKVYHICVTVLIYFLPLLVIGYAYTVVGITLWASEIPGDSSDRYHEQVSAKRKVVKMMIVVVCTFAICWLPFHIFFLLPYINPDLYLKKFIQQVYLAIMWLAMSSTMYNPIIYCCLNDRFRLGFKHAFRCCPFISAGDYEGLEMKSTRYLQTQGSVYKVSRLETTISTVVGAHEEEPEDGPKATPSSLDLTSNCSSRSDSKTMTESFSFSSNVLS
The next data set concerns the target Cytochrome P450 2C8 (Homo sapiens, UniProt P10632). Put plainly: Time dependent inhibition of CYP2C8 in human liver microsomes. It counts as ADME. Background: Liver microsomes are vesicles of endoplasmic reticulum, rich in cytochrome P450 enzymes.
The species named for data set [13] is Homo sapiens. Put plainly: Selectivity ratio of IC50 for inhibition of LRRK2 (unknown origin) to IC50 for inhibition of TTK (unknown origin).
The target in data set [14] is T1, Dual specificity protein kinase TTK. Put plainly: Inhibition of TTK autophosphorylation at T686 residue in human CAL-51 cells measured after 1 hr by Western blot analysis. The data set is classed as cell-based.
Data set [15] concerns the target Leucine-rich repeat serine/threonine-protein kinase 2 (Homo sapiens, UniProt Q5S007). Put plainly: Inhibition of LRRK2 (unknown origin) by ADAPTA assay.
A short description of data set [16]: Toxicity in CB17-SCID mouse xenografted with human CAL-51 cells assessed as body weight loss at 30 to 50 mg/kg, iv administered once per week for 16 days. The data set is classed as organism-based. The note with it: in vivo, 384 h, dose 30-50 mg/kg, time 16 day.
Data set [17] concerns the target Substance-K receptor (Homo sapiens) (UniProt P21452). Put plainly: Inhibition of Neurokinin NK2 receptor (unknown origin) at 10 uM relative to control.
Data set [18] in a line: Volume of distribution at steady state in mouse at 2 mg/kg, iv. The data set is classed as ADME, organism-based. To be noted: in vivo, read-out: Vdss.

As a reminder, the IC50 is the concentration at which inhibition is half-maximal. Usually inhibition stands for the drop in the measured response relative to a control, in per cent. Higher therefore signals a response far below the control. As a reminder, the AUC is concentration integrated over time. A lower AUC goes with less exposure. As usually defined, the TGI is the reduction of tumour growth relative to the control group.

Mitogen-activated protein kinase 9, sequence (P45984 whole entry, looked up): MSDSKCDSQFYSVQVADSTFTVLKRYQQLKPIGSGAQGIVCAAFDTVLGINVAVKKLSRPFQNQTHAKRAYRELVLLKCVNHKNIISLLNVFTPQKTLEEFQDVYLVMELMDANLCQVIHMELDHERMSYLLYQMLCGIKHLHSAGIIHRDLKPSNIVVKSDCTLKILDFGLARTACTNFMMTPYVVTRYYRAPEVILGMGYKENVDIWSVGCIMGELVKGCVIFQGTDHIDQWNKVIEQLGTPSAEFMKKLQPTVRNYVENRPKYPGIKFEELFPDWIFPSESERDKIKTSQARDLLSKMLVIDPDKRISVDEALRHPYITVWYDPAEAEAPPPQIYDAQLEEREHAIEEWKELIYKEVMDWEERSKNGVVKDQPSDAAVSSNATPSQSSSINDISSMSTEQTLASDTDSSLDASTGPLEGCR
Cytochrome P450 2C8, sequence (P10632 whole entry): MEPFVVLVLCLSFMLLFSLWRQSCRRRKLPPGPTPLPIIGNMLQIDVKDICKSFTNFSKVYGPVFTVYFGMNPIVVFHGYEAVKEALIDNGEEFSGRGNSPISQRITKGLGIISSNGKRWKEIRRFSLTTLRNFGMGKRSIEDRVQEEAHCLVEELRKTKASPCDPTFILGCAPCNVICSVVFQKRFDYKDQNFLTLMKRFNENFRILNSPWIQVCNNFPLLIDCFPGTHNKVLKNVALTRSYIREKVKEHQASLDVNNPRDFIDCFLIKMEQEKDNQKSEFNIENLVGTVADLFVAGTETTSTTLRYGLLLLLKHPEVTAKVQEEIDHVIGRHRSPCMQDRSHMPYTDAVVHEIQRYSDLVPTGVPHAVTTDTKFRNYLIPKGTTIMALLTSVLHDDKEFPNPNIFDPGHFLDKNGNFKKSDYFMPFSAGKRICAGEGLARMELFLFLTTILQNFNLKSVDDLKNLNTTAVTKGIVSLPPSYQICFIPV
Leucine-rich repeat serine/threonine-protein kinase 2, sequence (Q5S007 whole entry): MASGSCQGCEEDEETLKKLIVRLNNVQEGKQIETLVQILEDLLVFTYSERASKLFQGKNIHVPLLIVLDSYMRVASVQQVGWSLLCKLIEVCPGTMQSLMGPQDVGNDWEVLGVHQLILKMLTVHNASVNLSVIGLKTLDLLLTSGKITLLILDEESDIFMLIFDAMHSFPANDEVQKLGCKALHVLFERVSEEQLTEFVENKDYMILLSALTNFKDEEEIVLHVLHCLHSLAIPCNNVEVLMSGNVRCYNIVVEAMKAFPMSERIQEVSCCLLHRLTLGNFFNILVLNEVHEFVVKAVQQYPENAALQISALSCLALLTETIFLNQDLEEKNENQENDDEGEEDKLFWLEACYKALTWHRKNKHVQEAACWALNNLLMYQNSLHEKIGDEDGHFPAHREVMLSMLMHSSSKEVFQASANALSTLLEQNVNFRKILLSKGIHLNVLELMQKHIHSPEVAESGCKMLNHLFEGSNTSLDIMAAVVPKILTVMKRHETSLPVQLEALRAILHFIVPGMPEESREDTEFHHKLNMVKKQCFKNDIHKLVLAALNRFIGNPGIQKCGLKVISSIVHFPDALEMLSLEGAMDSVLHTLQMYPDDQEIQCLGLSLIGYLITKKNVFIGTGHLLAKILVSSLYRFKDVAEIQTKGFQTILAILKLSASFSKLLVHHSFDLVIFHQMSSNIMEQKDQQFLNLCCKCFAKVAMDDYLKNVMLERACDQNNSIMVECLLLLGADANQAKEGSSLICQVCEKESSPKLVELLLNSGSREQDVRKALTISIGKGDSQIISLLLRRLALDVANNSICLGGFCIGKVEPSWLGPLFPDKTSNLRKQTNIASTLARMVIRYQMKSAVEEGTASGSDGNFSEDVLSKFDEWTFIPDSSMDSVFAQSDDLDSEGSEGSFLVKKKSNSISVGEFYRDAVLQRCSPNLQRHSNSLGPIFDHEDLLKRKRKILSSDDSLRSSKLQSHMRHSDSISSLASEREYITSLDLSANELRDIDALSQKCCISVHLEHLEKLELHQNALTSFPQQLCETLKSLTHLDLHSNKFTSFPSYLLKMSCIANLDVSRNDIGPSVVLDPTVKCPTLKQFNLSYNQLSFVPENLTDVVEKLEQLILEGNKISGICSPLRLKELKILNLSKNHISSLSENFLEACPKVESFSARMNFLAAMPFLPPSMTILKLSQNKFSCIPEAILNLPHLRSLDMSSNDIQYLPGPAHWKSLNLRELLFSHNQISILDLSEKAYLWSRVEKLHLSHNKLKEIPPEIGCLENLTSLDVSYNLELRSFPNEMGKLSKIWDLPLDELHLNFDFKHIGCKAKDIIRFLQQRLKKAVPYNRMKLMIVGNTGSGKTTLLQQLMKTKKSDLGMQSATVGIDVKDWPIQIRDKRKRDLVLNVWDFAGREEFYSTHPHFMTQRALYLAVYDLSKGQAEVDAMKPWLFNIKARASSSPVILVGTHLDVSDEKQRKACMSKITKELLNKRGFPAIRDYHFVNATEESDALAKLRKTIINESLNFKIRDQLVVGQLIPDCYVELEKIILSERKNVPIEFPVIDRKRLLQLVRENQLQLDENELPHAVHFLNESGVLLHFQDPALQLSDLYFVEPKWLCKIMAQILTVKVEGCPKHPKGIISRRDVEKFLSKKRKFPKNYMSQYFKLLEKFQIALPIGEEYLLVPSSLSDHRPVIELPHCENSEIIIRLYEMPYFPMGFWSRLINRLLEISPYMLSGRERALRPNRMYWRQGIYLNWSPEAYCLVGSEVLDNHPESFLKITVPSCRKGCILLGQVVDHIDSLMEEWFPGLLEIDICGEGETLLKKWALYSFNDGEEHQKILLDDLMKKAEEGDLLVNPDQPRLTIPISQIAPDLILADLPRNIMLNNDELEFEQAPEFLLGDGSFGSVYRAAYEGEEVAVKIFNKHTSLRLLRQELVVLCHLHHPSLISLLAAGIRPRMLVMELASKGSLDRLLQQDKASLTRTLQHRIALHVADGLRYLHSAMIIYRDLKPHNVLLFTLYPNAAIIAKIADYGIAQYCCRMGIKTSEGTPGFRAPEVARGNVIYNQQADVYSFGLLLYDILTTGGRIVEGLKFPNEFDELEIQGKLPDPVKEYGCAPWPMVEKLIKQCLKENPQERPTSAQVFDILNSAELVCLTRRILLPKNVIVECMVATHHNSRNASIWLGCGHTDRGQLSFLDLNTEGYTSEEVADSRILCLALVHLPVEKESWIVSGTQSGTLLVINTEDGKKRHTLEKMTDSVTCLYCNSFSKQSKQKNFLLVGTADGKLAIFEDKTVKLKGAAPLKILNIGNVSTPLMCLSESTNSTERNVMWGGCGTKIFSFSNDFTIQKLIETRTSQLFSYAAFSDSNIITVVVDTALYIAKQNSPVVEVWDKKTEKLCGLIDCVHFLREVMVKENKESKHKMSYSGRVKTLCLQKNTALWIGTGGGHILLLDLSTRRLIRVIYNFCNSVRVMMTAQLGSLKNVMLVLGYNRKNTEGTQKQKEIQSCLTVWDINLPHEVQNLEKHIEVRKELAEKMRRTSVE
Mitogen-activated protein kinase 8, sequence (P45983 whole entry): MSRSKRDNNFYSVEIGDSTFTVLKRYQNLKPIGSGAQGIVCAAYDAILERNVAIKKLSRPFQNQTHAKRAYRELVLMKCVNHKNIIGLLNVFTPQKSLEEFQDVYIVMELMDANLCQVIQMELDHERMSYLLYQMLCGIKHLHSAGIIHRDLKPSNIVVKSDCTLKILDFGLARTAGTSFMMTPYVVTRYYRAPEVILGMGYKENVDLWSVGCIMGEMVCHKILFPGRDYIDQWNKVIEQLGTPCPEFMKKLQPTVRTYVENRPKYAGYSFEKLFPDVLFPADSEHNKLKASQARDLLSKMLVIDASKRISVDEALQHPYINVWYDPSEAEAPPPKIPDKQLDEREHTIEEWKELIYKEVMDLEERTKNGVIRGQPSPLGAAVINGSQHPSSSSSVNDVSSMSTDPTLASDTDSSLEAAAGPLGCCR
MAP kinase-activated protein kinase 3, sequence (Q16644 whole entry): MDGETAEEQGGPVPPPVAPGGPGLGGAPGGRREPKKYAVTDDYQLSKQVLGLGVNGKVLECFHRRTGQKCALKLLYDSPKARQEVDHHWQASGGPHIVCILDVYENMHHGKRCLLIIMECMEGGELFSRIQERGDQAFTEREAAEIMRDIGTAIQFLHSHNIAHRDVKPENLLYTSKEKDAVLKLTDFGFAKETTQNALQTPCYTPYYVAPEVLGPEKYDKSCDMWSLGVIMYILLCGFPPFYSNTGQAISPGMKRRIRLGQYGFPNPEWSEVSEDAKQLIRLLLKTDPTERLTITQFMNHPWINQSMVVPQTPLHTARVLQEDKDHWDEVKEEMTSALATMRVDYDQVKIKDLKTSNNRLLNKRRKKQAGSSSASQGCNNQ

As for `CCc1cccc(CC)c1N1CCn2cc(-c3nc(Nc4ccc(N5CCC(C(=O)N6CC7(CN(C)C7)C6)CC5)cc4OC)nc4[nH]ccc34)cc2C1=O`, the IC50 in data set [1] was 0.003 µM; in data set [7] it was 0.192 µM; in data set [9], 0.944 µM; in data set [11], 1.48 µM; on Cytochrome P450 2C8, above 30 µM; in [14], 0.074 µM. The same molecule showed an IC50 in data set [15] of 0.342 µM. Also, the Ratio IC50 was 433 in the data set listed under Homo sapiens [2], 493 in the data set listed under Homo sapiens [3], 182 in the data set listed under Homo sapiens [6] and 114 in the data set filed under Homo sapiens [13]. Moreover, the inhibition was above 80% in [4], 80% in data set [12] and 80% in [17]. The Vd came out at 0.66 L/kg in [5] and 0.53 L/kg in [18]. The molecule also had an AUC in [8] of 5.29 µM·h. Also, in [10], the TGI was above 60%. Further, in [16], the Activity result is reported as “Non-Toxic”.

These data come from ChEMBL document CHEMBL5036336, “Structure-Guided Optimization Provides a Series of TTK Protein Inhibitors with Potent Antitumor Activity” (J Med Chem, 2021).
